From patent US20260083865A1, “PROSTATE SPECIFIC MEMBRANE ANTIGEN (PSMA) LIGANDS AND USE THEREOF” (priority 2022, published 2026)
Where two headings read alike, the source gives them in different places. Numbered stars: 1 amine (or outer) side, 2 acyl side, 3 side chain; on linkers, the order of the positions; unused ones are H or OH. Bridge positions count the residues as written; N and C are the ends. Square brackets hold non-standard residues; d marks the D form. Peptide text beside a SMILES is read from it. * marks the point of attachment. TtdsdLys(DOTA)NH2 = NC(=O)[C@@H](CCCCNC(=O)CN1CCN(CC(=O)O)CCN(CC(=O)O)CCN(CC(=O)O)CC1)NC(=O)CCC(=O)NCCCOCCOCCOCCCN*; DOTA = O=C(O)CN1CCN(CC(=O)O)CCN(CC(=O)*)CCN(CC(=O)O)CC1; Phe(3-Cl) = N[C@@H](Cc1cccc(Cl)c1)C(=O)O; Phe(4-Cl) = N[C@@H](Cc1ccc(Cl)cc1)C(=O)O; Arg(Me) = CNC(=N)NCCC[C@H](N)C(=O)O; Ethylenediamine = C(CN[*:2])N[*:1]; X1 = O=C(CC1CCN([*:1])CC1)[*:2]; Lys(Me) = CNCCCC[C@H](N)C(=O)O; Tle = CC(C)(C)[C@H](N)C(=O)O; Isovaleryl = CC(C)CC(=O)*; Nle = CCCC[C@H](N)C(=O)O; Hexanoyl = CCCCCC(=O)*; Aib = CC(C)(N)C(=O)O; CO = O=C([*:1])[*:2]; NHBu = CCCCN*

Tests used:
[1] = biological target: T1, Fc-fusion protein of human PSMA (hPSMA-Fc) (Homo sapiens, UniProt Q04609); assay: Surface plasmon resonance assay (Biacore T200, single cycle kinetic); assay type: binding; conditions: read-out: pKD CAT (converted)
T1 construct: purchased Acro Biosystems PSA-H5264
Experimental: Surface plasmon resonance (SPR) studies were performed using a Biacore™ T200 SPR system. Briefly, polarized light is directed towards a gold-labeled sensor surface, and minimum intensity reflected light is detected. The angle of reflected light changes as molecules bind and dissociate.
Fc-fusion protein of human PSMA (hPSMA-Fc, Acro Biosystems, Cat #PSA-H5264) was captured on a Fc-capture chip (Biacore™ CM5 sensor chip coated with ˜300 RU of an Fc-binding peptide). hPSMA-Fc was diluted in Running Buffer (HBST, 0.1% DMSO) to a final concentration of 100 nM and then flushed over the Fc-capture chip to immobilized ˜1000 RUs.
Stock solutions of test compounds were prepared by dissolving each compound in DMSO. DMSO stock solution were diluted 1:1000 in Running Buffer without DMSO. Further sequential dilutions were made with Running Buffer containing 0.1% DMSO. SPR binding analyses were performed in Single Cycle Kinetic (SCK) mode at 25° C. Flow cell coated with the Fc-binding peptide only served as reference flowcell. After each SCK run, hPSMA-Fc was removed with 10 mM glycine buffer, pH 1.5.
In between every three SCK measurements, a blank run with Running Buffer instead of test compound was included to correct for baseline drifts (double blanking method).
Table 5 describes the protocol steps for Fc-fusion target capturing and assessment of the binding kinetics.
For each test compound, SPR raw data in the form of resonance units (RU) were plotted as sensorgrams using the Biacore™ T200 control software. The signal from the blank sensorgram was subtracted from that of the test compound sensorgram (blank corrected). The blank corrected sensorgram was corrected for baseline drift by subtracting the sensorgram of a SCK run without the test compound (running buffer only). The dissociation constant (KD) was calculated from Blank-normalized SPR data using the 1:1 Langmuir binding model from the Biacore™ Insight Evaluation software. The pKD value (negative decadic logarithm of dissociation constant) was calculated using Microsoft Excel.

[2] = biological target: T2, PSMA-expressing C4-2 cells (Homo sapiens, UniProt Q04609); assay: FACS binding assay (competition with 50 nM PSM-0183); conditions: C4-2 cells, read-out: pIC50 [C4-2] CAT (converted)
T2 construct: PSMA-expressing C4-2 cells (ATCC, Cat. No. CRL-3314) were cultured in RPMI-1640; host or cells: C4-2 cells
Experimental: In order to determine binding of compounds according to the present invention to PSMA-expressing cells, a FACS binding assay was established.
PSMA-expressing C4-2 cells (ATCC, Cat. No. CRL-3314) were cultured in RPMI-1640 (Pan Biotech, Cat. No. P04-18050) including 10% fetal calf serum (Biochrom) and 100 U/ml penicillin and 100 μg/mL streptomycin (Sigma, Cat. No. P0781). Cells were detached with Accutase (Biolegend, Cat. No. BLD-423201) and washed in FACS buffer (PBS (Sigma, Cat. No. D8537) including 1% fetal calf serum). Cells were diluted in FACS buffer to a final concentration of 500,000 cells per mL. 200 μL of the cell suspension were transferred to a u-shaped non-binding 96-well plate (Greiner Bio-One, Cat. No. 650901) and cells were washed in ice-cold FACS buffer.
For IC50 determination, C4-2 cells were incubated with 50 nM PSM-0183 (Ac-Thr-Aib-Phe[Cys-Lys-Arg-Aib-Asn-Cys]-Tle-Thr-Asp-Ttds-Ttds-AF488N3K-NH2) in the presence of increasing concentrations of test compounds at 4° C. for 1 hour. After two wash steps with ice-cold FACS buffer, cells were analyzed in an Attune NxT flow cytometer. Median fluorescence intensities (MFI) of the FITC/AF488-channel were calculated by Attune NxT software. MFI values were plotted against peptide concentration and four parameter logistic (4PL) curve fitting and IC50/pIC50 calculations were performed using ActivityBase software (IDBS).

[3] = pKD category for PSMA SPR activity assay, hPSMA-Fc, 25° C.

T1 sequence (Q04609 44-750 limits assumed): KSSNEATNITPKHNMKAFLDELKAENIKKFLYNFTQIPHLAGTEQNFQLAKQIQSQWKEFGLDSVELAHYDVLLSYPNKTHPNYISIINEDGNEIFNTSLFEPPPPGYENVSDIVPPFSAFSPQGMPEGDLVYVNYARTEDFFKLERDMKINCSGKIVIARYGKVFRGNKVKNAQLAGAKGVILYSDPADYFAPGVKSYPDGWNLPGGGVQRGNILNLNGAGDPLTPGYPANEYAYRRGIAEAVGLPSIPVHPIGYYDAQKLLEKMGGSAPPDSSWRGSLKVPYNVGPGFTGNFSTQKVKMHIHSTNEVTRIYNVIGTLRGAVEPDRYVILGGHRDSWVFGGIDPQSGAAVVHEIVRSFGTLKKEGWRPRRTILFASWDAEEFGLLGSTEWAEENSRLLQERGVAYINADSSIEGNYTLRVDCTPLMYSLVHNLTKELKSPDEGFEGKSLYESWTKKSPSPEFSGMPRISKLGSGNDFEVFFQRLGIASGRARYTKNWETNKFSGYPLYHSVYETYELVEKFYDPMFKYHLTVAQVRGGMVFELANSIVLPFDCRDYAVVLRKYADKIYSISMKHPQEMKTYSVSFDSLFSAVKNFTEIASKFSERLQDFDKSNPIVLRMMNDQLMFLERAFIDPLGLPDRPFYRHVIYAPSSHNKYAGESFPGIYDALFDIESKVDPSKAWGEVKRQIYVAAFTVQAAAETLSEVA
T2 sequence (Q04609 whole entry): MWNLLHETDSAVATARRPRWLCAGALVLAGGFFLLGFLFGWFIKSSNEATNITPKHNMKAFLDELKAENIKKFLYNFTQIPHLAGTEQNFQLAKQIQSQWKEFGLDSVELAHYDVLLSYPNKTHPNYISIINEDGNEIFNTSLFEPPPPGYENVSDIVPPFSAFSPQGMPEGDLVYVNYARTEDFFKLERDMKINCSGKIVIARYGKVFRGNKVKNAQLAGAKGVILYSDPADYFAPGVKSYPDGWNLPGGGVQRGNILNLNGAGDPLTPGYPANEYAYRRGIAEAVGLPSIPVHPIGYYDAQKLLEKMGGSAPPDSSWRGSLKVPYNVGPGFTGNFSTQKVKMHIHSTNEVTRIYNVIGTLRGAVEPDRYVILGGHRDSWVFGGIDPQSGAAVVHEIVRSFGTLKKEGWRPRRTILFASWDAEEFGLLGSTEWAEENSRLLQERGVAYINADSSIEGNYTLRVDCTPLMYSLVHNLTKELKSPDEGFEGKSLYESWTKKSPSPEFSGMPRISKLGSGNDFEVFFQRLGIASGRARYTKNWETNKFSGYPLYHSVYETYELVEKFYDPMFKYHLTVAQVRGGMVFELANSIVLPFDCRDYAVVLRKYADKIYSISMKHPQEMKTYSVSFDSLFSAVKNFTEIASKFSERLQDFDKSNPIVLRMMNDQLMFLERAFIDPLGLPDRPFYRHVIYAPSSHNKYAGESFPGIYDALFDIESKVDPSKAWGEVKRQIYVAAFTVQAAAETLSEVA

| SMILES | Kd ([1]; PSMA SPR assay, category) [nM] | IC50 ([2]; FACS binding, category) [nM] | Kd [1, 3] [nM] | IC50 ([2]; pIC50 category of FACS binding) [nM] |
| --- | --- | --- | --- | --- |
| CCCC[C@H](NC(=O)[C@@H]1CSSC[C@H](NC(=O)[C@H](Cc2ccccc2)NC(=O)[C@H](C)NC(=O)[C@@H](NC(C)=O)[C@@H](C)O)C(=O)N[C@@H](CCCCN)C(=O)N[C@@H](CCCNC(=N)N)C(=O)N2CCC[C@H]2C(=O)N[C@@H](CC(N)=O)C(=O)N1)C(=O)N[C@H](C(=O)N[C@@H](CC(=O)O)C(N)=O)[C@@H](C)O [PSM-0460, Ac-Thr-Ala-Phe-[Cys-Lys-Arg-Pro-Asn-Cys]-Nle-Thr-Asp-NH2] (Ac-TAFCKRPNC[Nle]TD-NH2; disulfide 4-9) | – | – | 12.6 to 126 | < 200 |
| CC(C)CC(=O)NC(C)(C)C(=O)N[C@@H](Cc1ccc(Cl)cc1)C(=O)N[C@H]1CSSC[C@@H](C(=O)N[C@H](C(=O)N[C@H](C(=O)N[C@H](CCCCNC(=O)CN2CCN(CC(=O)O)CCN(CC(=O)O)CCN(CC(=O)O)CC2)C(N)=O)[C@@H](C)O)C(C)(C)C)NC(=O)[C@H](CC(N)=O)NC(=O)C(C)(C)NC(=O)[C@H](CCCNC(=N)N)NC(=O)[C@H](CCCCN)NC1=O [PSM-0444, Iva-Aib-Pcf-[Cys-Lys-Arg-Aib-Asn-Cys]-Tle-Thr-lys(DOTA)-NH2] (Isovaleryl-[Aib][Phe(4-Cl)]CKR[Aib]NC[Tle]T[dK](DOTA)-NH2; disulfide 3-8) | – | – | < 12.6 | < 200 |

Next, values leading:

| Kd ([1]; PSMA SPR assay, category) [nM] | IC50 ([2]; FACS binding, category) [nM] | Kd [1, 3] [nM] | IC50 ([2]; pIC50 category of FACS binding) [nM] | SMILES |
| --- | --- | --- | --- | --- |
| < 12.6 | < 200 | – | – | CCCCCC(=O)N[C@H](C(=O)NC(C)(C)C(=O)N[C@@H](Cc1ccccc1)C(=O)N[C@H]1CSSC[C@@H](C(=O)N[C@H](C(=O)N[C@H](C(=O)NCCCOCCOCCOCCCNC(=O)CCC(=O)N[C@H](CCCCNC(=O)CN2CCN(CC(=O)O)CCN(CC(=O)O)CCN(CC(=O)O)CC2)C(N)=O)[C@@H](C)O)C(C)(C)C)NC(=O)[C@H](CC(N)=O)NC(=O)C(C)(C)NC(=O)[C@H](CCCNC(=N)N)NC(=O)[C@H](CCCCN)NC1=O)[C@@H](C)O [PSM-0576, Hex-Thr-Aib-Phe-[Cys-Lys-Arg-Aib-Asn-Cys]-Tle-Thr-Ttds-lys(DOTA)-NH2] (Hexanoyl-T[Aib]FCKR[Aib]NC[Tle]T-{TtdsdLys(DOTA)NH2}; disulfide 4-9) |
| < 12.6 | < 200 | – | – | CNCCCC[C@@H]1NC(=O)[C@@H](NC(=O)[C@H](Cc2ccccc2)NC(=O)C(C)(C)NC(=O)[C@@H](NC(=O)CC2CCN(C(=O)CN3CCN(CC(=O)O)CCN(CC(=O)O)CCN(CC(=O)O)CC3)CC2)[C@@H](C)O)CSSC[C@@H](C(=O)N[C@H](C(=O)NCCN)C(C)(C)C)NC(=O)[C@H](CC(N)=O)NC(=O)C(C)(C)NC(=O)[C@H](CCCNC(=N)NC)NC1=O [PSM-605] ({DOTA}-[X1]T[Aib]FC[Lys(Me)][Arg(Me)][Aib]NC[Tle]-Ethylenediamine; disulfide 5-10) |
| – | – | < 12.6 | < 200 | CCCCNC(=O)N[C@H](C(=O)NC(C)(C)C(=O)N[C@@H](Cc1cccc(Cl)c1)C(=O)N[C@H]1CSSC[C@@H](C(=O)N[C@H](C(=O)N[C@H](C(=O)N2CCC(CC(=O)N[C@H](CCCCNC(=O)CN3CCN(CC(=O)O)CCN(CC(=O)O)CCN(CC(=O)O)CC3)C(N)=O)CC2)[C@@H](C)O)C(C)(C)C)NC(=O)[C@H](CC(N)=O)NC(=O)C(C)(C)NC(=O)[C@H](CCCNC(=N)N)NC(=O)[C@H](CCCCN)NC1=O)[C@@H](C)O [PSM-0470, nBuCAyl-Thr-Aib-Mcf-[Cys-Lys-Arg-Aib-Asn-Cys]-Tle-Thr-Cmp-lys(DOTA)-NH2] ({NHBu-CO}-T[Aib][Phe(3-Cl)]CKR[Aib]NC[Tle]T[X1][dK](DOTA)-NH2; disulfide 4-9) |
